The results in this text go back to patent publication US4576949A, “Use of 5,6,7,8-tetrahydroquinolines and 5,6-dihydropyrindines as leukotriene and lipoxygenase inhibitors and the novel 3-substituted compounds therein” (The Upjohn Company, priority 1984, dated 1986).

The experiment relates to LTC/LTD. The experiment can be described thus: inhibition of leukotriene C and D (LTC/LTD) synthesis in vitro. The experiment is classed as cell-based. The conditions noted are these: for activity at 1 µg / LTC/LTD inhibition, expressed as % of control, at 1.0: 1.0 μg; for activity at 1 µg: read-out: LTC/LTD inhibition, expressed as % of control, at 1.0; for activity at 10 µg: read-out: LTC/LTD inhibition, expressed as % of control, at 10 μg; for activity at 0.1 µg: 0.1 μg, read-out: LTC/LTD inhibition, expressed as % of control, at 0.1. The source says:
Thus, the following TABLE II provides examples of the biological activity as determined by methods known in the art (see Bach, M. K., et al., 6,9-deepoxy-6,9-phenylimino-Δ-6,8-prostaglandin I1, (U-60,257). A New Inhibitor of Leukotriene C and D Synthesis: In Vitro Studies. Prostaglandins 23, 759-771, 1982.) for the present invention having formula II.
^a Values for inhibition are expressed as % of control.
LTC/LTD is leukotriene C or D.

For the molecule `COC(=O)C=Cc1cc2c(nc1C)C(=Cc1ccccc1)CCC2` [3-[5,6,7,8-Tetrahydro-2-methyl-8-(phenylmethylene)-3-quinolinyl]-2-propenoic acid methyl ester], the activity at 1 µg is 99%. For the same molecule, the activity at 10 µg (10 μg) was found to be 117%.

`CC(=O)Oc1ccc(C=C2CCc3cccnc32)cc1` [4-[(5,6-Dihydro-7H-pyrindin-7-ylidene)methyl]phenol acetate]: the activity at 1 µg amounted to 88%. Moreover, under “10 μg”, the activity at 10 µg came to 45%.

For the molecule `CCOC(=O)c1cc2c(nc1C)C(Cc1ccccc1)CCC2` (centres unmarked) [5,6,7,8-Tetrahydro-2-methyl-8-(phenylmethyl)-3-quinolinecarboxylic acid ethyl ester], the activity at 0.1 µg worked out at 110%.

On to `CCOC(=O)c1cc2c(nc1C)C(=Cc1ccccc1)CCC2` [5,6,7,8-Tetrahydro-2-methyl-8-(phenylmethylene)-3-quinolinecarboxylic acid ethyl ester], for which the “LTC/LTD inhibition, expressed as % of control, at 1.0” value is listed as 96 % of control and the activity at 1 µg came out at 101%.

As for `CCOC(=O)c1cc2c(nc1C)C(CCCCCO)CCC2` (centres unmarked) [5,6,7,8-Tetrahydro-8-(5-hydroxypentyl)-2-methyl-3-quinolinecarboxylic acid ethyl ester], the “LTC/LTD inhibition, expressed as % of control, at 1.0” value is listed as 140 % of control and the activity at 1 µg came to 121%.

Regarding `CCOC(=O)c1cc2c(nc1C)C(=Cc1ccc(OC(C)=O)cc1)CCC2` [8-[[4-(Acetyloxy)phenyl]methylene]-5,6,7,8-tetrahydro-2-methyl-3-quinolinecarboxylic acid ethyl ester], the activity at 0.1 µg turned out to be 89% and the activity at 1 µg turned out to be 78%. The activity at 10 µg (10 μg) was 34%.

As for `CCOC(=O)c1cc2c(nc1C)C(CC(=O)CCCO)CCC2` (centres unmarked) [N; CHCO(CH2)3 OH; n 1; R8 CH3; R9 CO2 Et, 5,6,7,8-Tetrahydro-8-(5-hydroxy-2-oxopentyl)-2-methyl-3-quinolinecarboxylicacid ethyl ester], the activity at 0.1 µg turned out to be 19% and the activity at 1 µg was 52%. The activity at 10 µg (10 μg) amounted to 41%.

`C(=C1CCCc2cccnc21)c1ccccc1` [N; XII wherein M is H; n 1; R8 H; R9 H, 5,6,7,8-Tetrahydro-8-(phenylmethylene)-quinoline]: the activity at 1 µg is 105%. Where the note is “10 μg”, the activity at 10 µg is 33%.

For `CCOC(=O)c1cc2c(nc1C)C(=Cc1ccco1)CCC2` [N; XIV; n 1; R8 CH3; R9 CO2 Et, 8-(2-Furanylmethylene)-5,6,7,8-tetrahydro-2-methyl-3-quinolinecarboxylic acid ethyl ester], where the note is “10 μg”, the “LTC/LTD inhibition, expressed as % of control, at 10 μg” value was 31 % of control and the activity at 10 µg was determined as 16%.

For the molecule `CCOC(=O)c1cc2c(nc1C)C(CC1CCCO1)CCC2` (centres unmarked) [N; XIX; n 1; R8 CH3; R9 CO2 Et], the activity at 1 µg turned out to be 67%. Further, the activity at 10 µg (10 μg) turned out to be 52%.

`C(=C1CCc2cccnc21)c1cccs1` [N; XV; n 0; R8 H; R9 H, 5,7 -Dihydro-7-(2-thienylmethylene)-5H-1-pyrindine]: the activity at 1 µg was determined as 67%. Moreover, the activity at 10 µg (10 μg) amounted to 15%.
